# Patent US20170151261A1, “SKIN WOUND HEALING AND SCAR REDUCTION WITH PROSTAGLANDIN EP4 AGONIST COMBINATIONS” (Allergan, Inc., priority 2012, published 2017)
# Molecular target: EP4 (Homo sapiens, UniProt P35408)
# Assay: EP4 binding (Ki / IC50)
# Chain of EP4 (P35408 whole entry): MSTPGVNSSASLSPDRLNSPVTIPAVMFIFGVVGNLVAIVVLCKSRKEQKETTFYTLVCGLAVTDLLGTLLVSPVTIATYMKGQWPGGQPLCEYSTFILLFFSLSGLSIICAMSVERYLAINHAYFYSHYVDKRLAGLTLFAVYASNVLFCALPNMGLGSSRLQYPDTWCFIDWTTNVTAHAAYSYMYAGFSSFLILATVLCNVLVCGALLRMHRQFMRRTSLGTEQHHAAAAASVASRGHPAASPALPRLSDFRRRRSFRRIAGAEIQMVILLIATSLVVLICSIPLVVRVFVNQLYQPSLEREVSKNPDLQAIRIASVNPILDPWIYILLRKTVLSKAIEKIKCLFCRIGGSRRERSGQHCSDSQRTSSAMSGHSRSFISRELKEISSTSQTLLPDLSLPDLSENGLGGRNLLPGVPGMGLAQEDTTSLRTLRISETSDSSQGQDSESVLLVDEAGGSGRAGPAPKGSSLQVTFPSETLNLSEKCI
structure (smiles),measurement,value
CCCCC[C@H](O)c1ccc(N2C(=O)CC[C@@H]2CCCc2ccc(C(=O)O)s2)cc1,IC50,> 10 µM
